Results as given in ChEMBL document CHEMBL1153711, “Synthesis and antimycobacterial evaluation of novel 5,6-dimethoxy-1-oxo-2,5-dihydro-1H-2-indenyl-5,4-substituted phenyl methanone analogues” (Bioorg Med Chem Lett, 2009).
Converted amounts (≈) assume the structure as drawn.

System: Mycobacterium tuberculosis
Test: Antimycobacterial activity against isoniazid-resistant Mycobacterium tuberculosis by agar dilution method
Type: functional

SMILES | MIC [µM]
COc1cc2c(cc1OC)C(=O)C(C(=O)c1c(Cl)cccc1Cl)C2 (stereo not drawn) | 4.96 (≈ 1.81 µg/mL)
COc1cc2c(cc1OC)C(=O)C(C(=O)c1cccc([N+](=O)[O-])c1)C2 (stereo not drawn) | 8.72 (≈ 2.98 µg/mL)
COc1cc2c(cc1OC)C(=O)C(C(=O)c1ccc(Br)cc1)C2 (stereo not drawn) | 11.7 (≈ 4.41 µg/mL)
COc1cc2c(cc1OC)C(=O)C(C(=O)c1ccc(C#N)cc1)C2 (stereo not drawn) | > 6.25
COc1cc2c(cc1OC)C(=O)C(C(=O)c1ccc(N(C)C)cc1)C2 (stereo not drawn) | 8.78 (≈ 2.98 µg/mL)
COc1ccc(C(=O)C2Cc3cc(OC)c(OC)cc3C2=O)cc1 (stereo not drawn) | > 6.25
COc1cc2c(cc1OC)C(=O)C(C(=O)c1ccc(Cl)cc1)C2 (stereo not drawn) | 8.2 (≈ 2.71 µg/mL)
COc1cc2c(cc1OC)C(=O)C(C(=O)c1ccccc1)C2 (stereo not drawn) | 11.6 (≈ 3.43 µg/mL)
COc1ccc(C(=O)C2Cc3cc(OC)c(OC)cc3C2=O)cc1OC (stereo not drawn) | > 6.25
COc1cc2c(cc1OC)C(=O)C(C(=O)c1cc(OC)c(OC)c(OC)c1)C2 (stereo not drawn) | > 6.25
COc1cc2c(cc1OC)C(=O)C(C(=O)c1ccc(F)cc1)C2 (stereo not drawn) | 0.1 (≈ 0.0314 µg/mL)
COc1cc2c(cc1OC)C(=O)C(C(=O)c1ccccc1Cl)C2 (stereo not drawn) | 3.72 (≈ 1.23 µg/mL)
NNC(=O)c1ccncc1 [ISONIAZID] | 11.6 (≈ 1.59 µg/mL)
